From US5739334A (Istituto Ricerca Francesco Angelini S.p.A., priority 1992, dated 1998)

Tests used:
serotonin 2 = assay: Chemical bond studies: interference with serotonin 2 receptor (% inhibition); assay type: binding; conditions: table 2
alpha 1 = assay: Chemical bond studies: interference with alpha 1 receptor (% inhibition); assay type: binding; conditions: table 2
DL50 = assay type: in vivo; design: unit not given beside the values; conditions: species, route and unit not given
[1] = attributed to action on adrenergic receptors (alpha 1 and alpha 2); cited from earlier work
[2] = Burger's Medicinal Chemistry, 4th ed. (1981); cited from earlier work

| Structure (SMILES) | serotonine 2 (% inhibition) (serotonin 2; C = 10^-5 M) | serotonine 2 (% inhibition) (serotonin 2; C = 10^-7 M) | alpha 1 (% inhibition) (alpha 1; C = 10^-5 M) | alpha 1 (% inhibition) (alpha 1; C = 10^-7 M) | DL50 (DL50) | sporadic side effects [1] | clinical actions [2] |
| --- | --- | --- | --- | --- | --- | --- | --- |
| CC(CCn1nc2ccccn2c1=O)N1CCN(c2cccc(Cl)c2)CC1 (centres unmarked) [(I) R = R" = R"' = H; R' = CH3, 2-[3-[4-(3-chlorophenyl)-1-piperazinyl]-3-methylpropyl]-1,2,4-triazole-[4,3-a]-pyridin-3(2H)-one] | 100% | 59% | 91% | 26% | ≤ 300 | – | – |
| CC1CN(CCCn2nc3ccccn3c2=O)CCN1c1cccc(Cl)c1 (centres unmarked) [(I) R = R' = R" = H; R"' = CH3, 2-[3-[4-(3-chlorophenyl)-1-(3-methyl)-piperazinyl]-propyl]-1,2,4-triazole-[4,3-a]-pyridin-3(2H)-one] | 98% | 68% | 85% | 20% | ≤ 600 | – | – |
| CC1CN(c2cccc(Cl)c2)CCN1CCCn1nc2ccccn2c1=O (centres unmarked) [(I) R = R' = R"' = H; R" = CH3, 2-[3-[4-(3-chlorophenyl)-1-(2-methyl)-piperazinyl]-propyl]-1,2,4-triazole-[4,3-a]-pyridin-3(2H)-one] | 100% | 69% | 96% | 37% | 300 | – | – |
| CC(CN1CCN(c2cccc(Cl)c2)CC1)Cn1nc2ccccn2c1=O (centres unmarked) [(I) R' = R" = R"' = H; R = CH3, 2-[3-[4-(3-chlorophenyl)-1-piperazine]-2-methylpropyl]-1,2,4-triazole[4,3-a]-pyridin-3-(2H)-one] | 100% | 62% | 88% | 27% | ≤ 600 | – | – |
| O=c1n(CCCN2CCN(c3cccc(Cl)c3)CC2)nc2ccccn12 [trazodone] | – | – | – | – | ≥ 200 | hypotension and priapism | diazepine-like clinical actions |
